Experimental data from patent publication US20090082337A1, “Compositions Comprising Quinolone and Methods for Treating or Controlling Infections” (priority 2007, published 2009).
Where two headings read alike, the source gives them in different places.

How the values were obtained:
Format in all cases: cell-based
[1] = test system: Propionibacterium acnes (ATCC 6919); assay: In vitro anti-bacterial activity (MIC90), anaerobic bacteria; settings: Cutibacterium acnes, ATCC6919, anaerobic reference bacteria
[2] = test system: Bacteroides thetaiotaomicron (GAI 0659); assay: as above
[3] = test system: Clostridium perfringens (KZ 210); assay: microbe, parasite or virus in culture
[4] = test system: Serratia marcenscens (NHL); assay: In vitro anti-bacterial activity (MIC90), Gram-negative bacteria; settings: Gram-negative reference strain
Procedure: (§1) In yet another aspect, said another quinolone has a MIC90 value for a Gram-negative bacterium that is lower than that of the fluoroquinolone having Formula I, II, III, IV, V, VI, VII, or VIII for the same bacterium, said fluoroquinolone being included in the composition. MIC90 is the minimum concentration of the active compound required to inhibit ninety percent of the growth of a specified pathogen, in μg/ml.
(§2) Anti-bacterial activity of the compound having Formula IV was tested against several Gram-negative reference bacteria strains and compared to the anti-bacterial activity of three commercially available antibiotics (nadifloxacin, ofloxacin, and sparfloxacin). The results are shown in Table 2 as MIC90 values (minimum concentration of the active compound required to inhibit ninety percent of the growth of a specified pathogen, in μg/ml).

[5] = test system: Enterobacter aerogenes (IFO 13534); assay: as above; settings: Klebsiella aerogenes, IFO13534, Gram-negative reference strain
Procedure: as §1, §2

[6] = test system: Proteus mirabilis (IFO 13300); assay: as above; settings: IFO13300, Gram-negative reference strain
Procedure: as §1, §2

[7] = test system: Pseudomonas aeruginosa (IFO 13736); assay: as above; settings: IFO13736, Gram-negative reference strain
Procedure: as §1, §2

Proteus rettgeri = assay: as above; settings: Providencia rettgeri, Gram-negative reference strain
Procedure: as §1, §2

[8] = test system: Pseudomonas aeruginosa (ATCC 27853); assay: as above; settings: ATCC27853, Gram-negative reference strain
Procedure: as §1, §2

[9] = test system: Klebsiella pneumoniae (IFO 13541); assay: as above; settings: IFO13541, Gram-negative reference strain
Procedure: as §1, §2

Shigella flexneri (2b) = assay: as above; settings: Gram-negative reference strain
Procedure: as §1, §2

Escherichia coli (O-1) = assay: as above; settings: Gram-negative reference strain
Procedure: as §1, §2

[10] = test system: Acinetobacter calcoaceticus (IFO 12552); assay: as above; settings: IFO12552, Gram-negative reference strain
Procedure: as §1, §2

[11] = test system: Peptostreptococcus micros (GIFU 7824); assay: In vitro anti-bacterial activity (MIC90), anaerobic bacteria; settings: Parvimonas micra, anaerobic reference bacteria
[12] = test system: Salmonella typhimurium (TD); assay: In vitro anti-bacterial activity (MIC90), Gram-negative bacteria; settings: Salmonella enterica, Gram-negative reference strain
Procedure: Anti-bacterial activity of the compound having Formula IV was tested against several Gram-negative reference bacteria strains and compared to the anti-bacterial activity of three commercially available antibiotics (nadifloxacin, ofloxacin, and sparfloxacin).

[13] = test system: Bacteroides fragillis (GAI 0675); assay: In vitro anti-bacterial activity (MIC90), anaerobic bacteria; settings: anaerobic reference bacteria
[14] = test system: Veillonella parvula (GAI 5602); assay: as above; settings: anaerobic reference bacteria
[15] = test system: Streptococcus pyogenes (Cook); assay: In vitro anti-bacterial activity (MIC90), Gram-positive bacteria; settings: Gram-positive reference strain
Procedure: as §1, with “μg/ml. Anti-bacterial activity of the compound having Formula […] was tested against several Gram-positive reference bacteria strains and compared to the anti-bacterial activity of three commercially available antibiotics (nadifloxacin, ofloxacin, and sparfloxacin).” for “μg/ml.”

[16] = test system: Staphylococcus epidermidis (ATCC 12228); assay: as above; settings: ATCC12228, Gram-positive reference strain
Procedure: as §1, with “μg/ml. Anti-bacterial activity of the compound having Formula […] was tested against several Gram-positive reference bacteria strains and compared to the anti-bacterial activity of three commercially available antibiotics (nadifloxacin, ofloxacin, and sparfloxacin).” for “μg/ml.”

[17] = test system: Sarcina lutea (ATCC 9341); assay: as above; settings: Micrococcus luteus, ATCC9341, Gram-positive reference strain
Procedure: as §1, with “μg/ml. Anti-bacterial activity of the compound having Formula […] was tested against several Gram-positive reference bacteria strains and compared to the anti-bacterial activity of three commercially available antibiotics (nadifloxacin, ofloxacin, and sparfloxacin).” for “μg/ml.”

[18] = test system: Streptococcus pneumoniae (IID 553); assay: as above; settings: IID553, Gram-positive reference strain
Procedure: as §1, with “μg/ml. Anti-bacterial activity of the compound having Formula […] was tested against several Gram-positive reference bacteria strains and compared to the anti-bacterial activity of three commercially available antibiotics (nadifloxacin, ofloxacin, and sparfloxacin).” for “μg/ml.”

[19] = test system: Staphylococcus aureus (Smith); assay: as above; settings: Gram-positive reference strain
Procedure: as §1, with “μg/ml. Anti-bacterial activity of the compound having Formula […] was tested against several Gram-positive reference bacteria strains and compared to the anti-bacterial activity of three commercially available antibiotics (nadifloxacin, ofloxacin, and sparfloxacin).” for “μg/ml.”

[20] = test system: Streptococcus pneniae (IID 554); assay: as above; settings: IID554, Gram-positive reference strain
Procedure: as §1, with “μg/ml. Anti-bacterial activity of the compound having Formula […] was tested against several Gram-positive reference bacteria strains and compared to the anti-bacterial activity of three commercially available antibiotics (nadifloxacin, ofloxacin, and sparfloxacin).” for “μg/ml.”

[21] = test system: Bacillis subtilis (ATCC 6633); assay: as above; settings: Gram-positive reference strain
Procedure: as §1, with “μg/ml. Anti-bacterial activity of the compound having Formula […] was tested against several Gram-positive reference bacteria strains and compared to the anti-bacterial activity of three commercially available antibiotics (nadifloxacin, ofloxacin, and sparfloxacin).” for “μg/ml.”

[22] = test system: Staphylococcus aureus (FDA 209P); assay: as above; settings: FDA209P, Gram-positive reference strain
Procedure: as §1, with “μg/ml. Anti-bacterial activity of the compound having Formula […] was tested against several Gram-positive reference bacteria strains and compared to the anti-bacterial activity of three commercially available antibiotics (nadifloxacin, ofloxacin, and sparfloxacin).” for “μg/ml.”

[23] = test system: Streptococcus faecalis (ATCC 29212); assay: as above; settings: Enterococcus faecalis, ATCC29212, Gram-positive reference strain
Procedure: as §1, with “μg/ml. Anti-bacterial activity of the compound having Formula […] was tested against several Gram-positive reference bacteria strains and compared to the anti-bacterial activity of three commercially available antibiotics (nadifloxacin, ofloxacin, and sparfloxacin).” for “μg/ml.”

[24] = test system: Streptococcus pyogenes (IID 698); assay: as above; settings: IID698, Gram-positive reference strain
Procedure: as §1, with “μg/ml. Anti-bacterial activity of the compound having Formula […] was tested against several Gram-positive reference bacteria strains and compared to the anti-bacterial activity of three commercially available antibiotics (nadifloxacin, ofloxacin, and sparfloxacin).” for “μg/ml.”

[25] = test system: Streptococcus faecalis (IFO 12964); assay: as above; settings: Enterococcus faecalis, IFO12964, Gram-positive reference strain
Procedure: as §1, with “μg/ml. Anti-bacterial activity of the compound having Formula […] was tested against several Gram-positive reference bacteria strains and compared to the anti-bacterial activity of three commercially available antibiotics (nadifloxacin, ofloxacin, and sparfloxacin).” for “μg/ml.”

[26] = test system: Staphylococcus aureus (ATCC 25933); assay: as above; settings: ATCC25933, Gram-positive reference strain
Procedure: as §1, with “μg/ml. Anti-bacterial activity of the compound having Formula […] was tested against several Gram-positive reference bacteria strains and compared to the anti-bacterial activity of three commercially available antibiotics (nadifloxacin, ofloxacin, and sparfloxacin).” for “μg/ml.”

[27] = test system: Propionibacterium acnes (GAI 5419); assay: In vitro anti-bacterial activity (MIC90), anaerobic bacteria; settings: Cutibacterium acnes, anaerobic reference bacteria
[28] = test system: Peptostreptococcus magnum (GAI 0664); assay: as above; settings: anaerobic reference bacteria

Measured: MIC90

C[C@@H]1CN(c2c(F)c(N)c3c(=O)c(C(=O)O)cn(C4CC4)c3c2F)C[C@H](C)N1 [Sparfloxacin, sparfloxacin]
0.05 µg/mL: [19]
0.006 µg/mL: Shigella flexneri (2b)
0.78 µg/mL: [2]; Bacteroides thetaiotaomicron | [7] | [8] | [11] | [13] | [25]
0.012 µg/mL: [9] | Escherichia coli (O-1) | [12]
0.39 µg/mL: [1] | [3] | [15] | [18] | [20] | [23] | [27]
0.2 µg/mL: [4] | Proteus rettgeri | [14] | [16] | [24]
1.56 µg/mL: [17]
0.1 µg/mL: [5] | [6] | [26] | [28]
0.024 µg/mL: [10] | [21] | [22]

CC1CCc2c(N3CCC(O)CC3)c(F)cc3c(=O)c(C(=O)O)cn1c23 (stereo not shown) [Nadifloxacin, nadifloxacin]
0.78 µg/mL: [10] | [14] | [15] | [18] | [20] | [23] | [25]
3.13 µg/mL: [7]
6.25 µg/mL: [8]
0.006 µg/mL: Shigella flexneri (2b) | [21]
0.1 µg/mL: [6] | [9] | [16] | [24]
0.2 µg/mL: [1] | [3] | Escherichia coli (O-1) | [12] | [27] | [28]
1.56 µg/mL: [2]; Bacteroides thetaiotaomicron | [4] | [5] | [13]
0.05 µg/mL: [26]
0.39 µg/mL: Proteus rettgeri | [11] | [17]
0.024 µg/mL: [19] | [22]

CC1COc2c(N3CCN(C)CC3)c(F)cc3c(=O)c(C(=O)O)cn1c23 (stereo not shown) [Ofloxacin, ofloxacin]
0.78 µg/mL: [1] | [3] | [11] | [15] | [16] | [27]
0.2 µg/mL: [5] | Proteus rettgeri | [19] | [22]
0.024 µg/mL: [9]
0.05 µg/mL: [6] | Escherichia coli (O-1) | [12] | [21]
1.56 µg/mL: [7] | [13] | [18] | [20] | [23] | [25]
3.13 µg/mL: [2]; Bacteroides thetaiotaomicron | [8] | [17]
0.006 µg/mL: Shigella flexneri (2b)
0.1 µg/mL: [4]
0.39 µg/mL: [10] | [14] | [24] | [26] | [28]

N[C@@H]1CCCCN(c2c(F)cc3c(=O)c(C(=O)O)cn(C4CC4)c3c2Cl)C1 [Compound Having Formula IV]
0.2 µg/mL: [1] | [2]; Bacteroides thetaiotaomicron (GAI 0659), anaerobic reference bacteria, read-out: MIC90 | [3] | [4] | [11] | [20] | [23] | [27]
1.56 µg/mL: [7] | [8]
0.05 µg/mL: [12] | [16] | [26] | [28]
0.1 µg/mL: [6] | Escherichia coli (O-1) | [13] | [14] | [15] | [17] | [18] | [24] | [25]
0.012 µg/mL: [21] | [22]
0.006 µg/mL: Shigella flexneri (2b) | [19]
0.39 µg/mL: [5] | Proteus rettgeri | [10]
0.024 µg/mL: [9]
